Patent US11976274B2, “Methods and compositions for identifying neoantigens for use in treating and preventing cancer” (Arizona Board of Regents on Behalf of Arizona State …, priority 2019, dated 2024)

Tests used:
Format in all cases: in vivo
B16-F10 cells = test: B16F10-C57BL6 mouse melanoma tumor model, genetic immunization and tumor challenge; settings: B16F10 melanoma in C57BL6, gene gun immunization, 1×10^5 cells, vs mock/control antigen CPV 172
4T1 cells = test: 4T1-BALB/c mouse breast tumor model, immunization and tumor challenge; settings: for tumor retardation: gene vaccines, three immunizations, subcutaneous 2×10^3 4T1 cells, vs mock
Description: BALB/c and C57BL/6 mice were from Charles River Laboratories or Jackson Laboratories. […] Tumor volumes were measured and calculated by (Length^2×Width/2) daily after the size was larger than 1 mm^3. Breeding pairs of BALB-neuT and FVB-neuN (FVB/N-Tg (MMTVneu) 202Mul) mice were obtained from Joseph Lustgarten, Mayo Clinic Arizona. Mice were monitored weekly for the tumor incidence after tumor size reached 1 mm^3. All experiments were performed in accordance with protocols approved by the Institutional Animal Care and Use Committee of Arizona State University. Statistical significance of differences was analyzed by a Student t-test.
The DNA fragments encoding FS peptides were cloned as a C-terminal fusion into the genetic immunization vectors pCMVi-UB (26) and pCMVi-LSrCOMPTT (27, 28) with the Bgl II and Hind III and mixed with 1:1 ratio as the vaccine antigen. Three adjuvants were encoded by genetic immunization vectors. The pCMVi-mGM-CSF vector expresses the adjuvant mouse granulocyte/macrophage colony-stimulating factor (mGM-CSF) under control of the human cytomegalovirus (CMV) promoter (27). […]. Vectors pCMVi-UB, pCMVi-LSrCOMPTT, pCMVi-LTA (also called pCMVi-LS-LTA-R192G) and pCMVi-LTB are available from the PSI:Biology-Materials Repository DNASU (dnasu.org) at Arizona State University. Additional adjuvants were the class A CpG 2216 single-stranded oligodeoxynucleotide obtained from Sigma and alum from Pierce.
Bullets for biolistic genetic immunization used the gold micronanoplex approach and were prepared as described (30) with the following changes. Two grams of 1-micron gold was used. Prior to addition of N-hydroxysuccinimide and N-(3-dimethylaminopropyl)-N′-ethylcarbodiimide hydrochloride, the gold was resuspended in 20 mL of a 0.1 M solution of 2-(N-morpholino) ethanesulfonic acid (MES), pH 6.0. DNA-gold micronanoplexes were prepared by combining, per bullet, 57 μL of cysteamine-gold solution with precipitated DNA (≤10 μg) that had been resuspended in ≤15 μL of water, and then vortexing for 10 min. To the DNA-cysteamine-gold was added 6 μL/bullet of a freshly made solution of PEI-micron gold (167 mg/mL in 0.1 M MES, pH 6, without NaCl). The pelleted micronanoplexes were washed with ethanol prior to resuspension in n-butanol (55 μL/bullet), followed by bullet formation under nitrogen gas.
For the three MS FS experiments, all mice (n=10 per group) were genetically immunized in the ear by Gene Gun at 8 weeks of age (2 shots/mouse, 60 ng pooled antigens plus 0.25 μg LTAB and 2.5 μg CpG2216 as the adjuvant for each shot) and boosted twice (two days apart) in three weeks with 1 μg pooled antigens plus the same adjuvants dosage. All mice were boosted again in two weeks with 50 μg KLH conjugated MS FS peptides with 50 μg CpG 2216 and 50 ul alum in total 100 ul PBS. […]

[1] = tested on: BALB-NeuT mouse breast tumor; test: BALB-NeuT transgenic mouse mammary cancer model, tumor free curve; settings: Mantal-Cox test
Description: BALB/c and C57BL/6 mice were from Charles River Laboratories or Jackson Laboratories. For the tumor challenge, 5×10^3 4T1 cells were injected in the mammary pad at the right flank of the mice, or 1×10^5 B16F10 cells were injected subcutaneously in the right flank of the mice. Tumor volumes were measured and calculated by (Length^2×Width/2) daily after the size was larger than 1 mm^3. Breeding pairs of BALB-neuT and FVB-neuN (FVB/N-Tg (MMTVneu) 202Mul) mice were obtained from Joseph Lustgarten, Mayo Clinic Arizona. Mice were monitored weekly for the tumor incidence after tumor size reached 1 mm^3. All experiments were performed in accordance with protocols approved by the Institutional Animal Care and Use Committee of Arizona State University. Statistical significance of differences was analyzed by a Student t-test.
Mice were genetically immunized by Gene Gun at 4-6 weeks with 100 ng of antigen(s) in pCMVi vectors, boosted twice (3-4 days apart) at 9-10 weeks with 1 μg of the same antigen(s), and boosted once at 13-14 weeks with protein. Genetic immunizations included adjuvants LTAB (0.5 μg) and CpG 2216 (5 μg). Protein boosts were 50 μg of KLH conjugated FS peptides (SMC1A-1^4, n=32; RBM FS, n=22; SLAIN2 FS, n=14 and pool of three FS neoantigens, n=37). The protein boost included 50 μg CpG 2216 and 50 μl alum in 100 μl PBS as the adjuvant. […]

| Sequence | tumor growth (B16-F10 cells) | 4T1 tumor growth (4T1 cells; BALB/c, gene gun plus KLH-peptide boost, 5×10^3 4T1 cells, vs empty vector/KLH) | T-cell dependence of protection (4T1 cells; depletion of CD8 or CD4 T-cells in immunized BALB/c mice, 4T1) | tumor retardation (4T1 cells) | p, tumor free curve, 3FS pool vs individual FS antigen group [1] |
| --- | --- | --- | --- | --- | --- |
| TAIIGPNGSGCSGVYCHEEPQGEDSSV [mSMC1A-1^4] | significant retardation of tumor growth | significantly retarded the 4T1 tumor growth | CD8 T cell dependent | – | – |
| IPRMQPQASANHCQLLKVMVA [SLAIN2 FS] | – | – | – | conferred tumor retardation | 0.43 |
| AVLLMCQLYQPWMCKEYYRLL [ZDHHC17 FS] | – | – | – | did not | – |
